Results taken from US9765056B2, “Indole and pyrrole compounds, a process for their preparation and pharmaceutical compositions containing them” (LES LABORATOIRES SERVIER, priority 2013, dated 2017).
Counter-ions that a name gives are not always drawn.

Columns and labels:
Bcl-2 protein = Bcl-2 protein (histag-Bcl-2, UniProtKB P10415) (Homo sapiens (Human), UniProt P10415); experiment: Inhibition of Bcl-2 by the fluorescence polarisation technique; type: binding; conditions: for IC50: fluorescence polarisation test, method A, or method B where underlined (underlining not visible), read-out: IC50 (nM) Bcl-2 FP
Bcl-2 protein, sequence (P10415 whole entry): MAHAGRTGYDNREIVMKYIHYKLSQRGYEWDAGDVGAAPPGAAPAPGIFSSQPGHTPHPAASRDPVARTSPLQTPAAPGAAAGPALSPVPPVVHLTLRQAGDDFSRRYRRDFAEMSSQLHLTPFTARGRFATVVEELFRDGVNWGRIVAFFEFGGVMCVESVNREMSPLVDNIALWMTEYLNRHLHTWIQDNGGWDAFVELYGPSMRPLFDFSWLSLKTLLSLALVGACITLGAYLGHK
Source text: Inhibition of Bcl-2 by the fluorescence polarisation technique

[1] = tested on: RS4;11 leukaemia tumour line; experiment: In vitro cytotoxicity, Microculture Tetrazolium Assay (MTT); type: cell-based; conditions: Homo sapiens; RS4;11 cells, 48 hours exposure
Procedure: The cytotoxicity studies were carried out on the RS4;11 leukaemia tumour line.
The cells are distributed onto microplates and exposed to the test compounds for 48 hours. The cell viability is then quantified by a colorimetric assay, the Microculture Tetrazolium Assay (Cancer Res., 1987, 47, 939-942).

Compound: CCCCN(CCCC)C(=O)c1cn(-c2ccc(NC(=O)CSc3ccccc3)cc2C(=O)N2Cc3ccccc3C[C@H]2CN2CCN(C)CC2)c2ccccc12 [Example 199, N,N-Dibutyl-1-{2-[(3S)-3-[(4-methylpiperazin-1-yl)methyl]-1,2,3,4-tetrahydroisoquinoline-2-carbonyl]-4-[2-(phenylsulphanyl)acetamido]phenyl}-1H-indole-3-carboxamide]
- IC50 (Bcl-2 protein): 57.7 nM
- IC50 [1]: 2360 nM

Compound: COc1cc(-n2nc(C(=O)N(c3ccccc3)c3ccccc3)c3ccccc32)c(C(=O)N2Cc3ccccc3C[C@H]2CN)cc1O [Example 135, 1-{2-[(3S)-3-(Aminomethyl)-1,2,3,4-tetrahydroisoquinoline-2-carbonyl]-4-hydroxy-5-methoxyphenyl}-N,N-diphenyl-1H-indazole-3-carboxamide]
- IC50 (Bcl-2 protein): 10.4 nM
- IC50 [1]: 461 nM

Compound: Cc1cc(C(=O)N(c2ccc(O)cc2)c2ccc3c(ccn3C)c2)cn1-c1cc2occc2cc1C(=O)N1Cc2ccccc2C[C@H]1CN1CCOCC1 [Example 119, N-(4-Hydroxyphenyl)-5-methyl-N-(1-methyl-1H-indol-5-yl)-1-(5-{[(3S)-3-(morpholin-4-ylmethyl)-3,4-dihydroisoquinolin-2(1H)-yl]carbonyl}-1-benzofuran-6-yl)-1H-pyrrole-3-carboxamide hydrochloride]
- IC50 (Bcl-2 protein): 28.4 nM
- IC50 [1]: 96.4 nM

Compound: CN1CCN(C[C@@H]2Cc3ccccc3CN2C(=O)c2ccc(Cl)cc2-n2cc(C(=O)N(c3ccccc3)c3ccc(O)cc3)c3ccccc32)CC1 [Example 159, 1-{5-Chloro-2-[(3S)-3-[(4-methylpiperazin-1-yl)methyl]-1,2,3,4-tetrahydroisoquinoline-2-carbonyl]phenyl}-N-(4-hydroxyphenyl)-N-phenyl-1H-indole-3-carboxamide]
- IC50 (Bcl-2 protein): 10.2 nM
- IC50 [1]: 191 nM

Compound: COc1cc(-n2cc(C(=O)N(c3ccccc3)c3ccc4[nH]ccc4c3)c3ccccc32)c(C(=O)N2Cc3ccccc3C[C@H]2CN2CCN(C)CC2)cc1O [Example 198, 1-{4-Hydroxy-5-methoxy-2-[(3S)-3-[(4-methylpiperazin-1-yl)methyl]-1,2,3,4-tetrahydroisoquinoline-2-carbonyl]phenyl}-N-(1H-indol-5-yl)-N-phenyl-1H-indole-3-carboxamide]
- IC50 (Bcl-2 protein): 3.4 nM
- IC50 [1]: 616 nM

Compound: CNc1ccc(-n2nc(C(=O)N(c3ccccc3)c3ccccc3)c3ccccc32)c(C(=O)N2Cc3ccccc3C[C@H]2CN)c1 [Example 140, 1-{2-[(3S)-3-(Aminomethyl)-1,2,3,4-tetrahydroisoquinoline-2-carbonyl]-4-(methylamino)phenyl}-N,N-diphenyl-1H-indazole-3-carboxamide]
- IC50 (Bcl-2 protein): 25 nM
- IC50 [1]: 1840 nM

Compound: NC[C@@H]1Cc2ccccc2CN1C(=O)c1ccccc1-n1cc(C(=O)N(c2ccccc2)c2ccccc2)c2ccccc21 [Example 123, 1-{2-[(3S)-3-(Aminomethyl)-1,2,3,4-tetrahydroisoquinoline-2-carbonyl]-phenyl}-N,N-diphenyl-1H-indole-3-carboxamide]
- IC50 (Bcl-2 protein): 90 nM
- IC50 [1]: 2370 nM

Compound: O=C(c1cn(-c2cc3c(cc2C(=O)N2Cc4ccccc4C[C@H]2CN2CCOCC2)OCO3)c2c1CCCC2)N(c1ccccc1)c1ccc(O)cc1 [Example 113, N-(4-Hydroxyphenyl)-1-(6-{[(3S)-3-(morpholin-4-ylmethyl)-3,4-dihydroisoquinolin-2(1H)-yl]carbonyl}-1,3-benzodioxol-5-yl)-N-phenyl-4,5,6,7-tetrahydro-1H-indole-3-carboxamide hydrochloride]
- IC50 (Bcl-2 protein): 19.2 nM
- IC50 [1]: 203 nM

Compound: CCn1ccc2cc(N(C(=O)c3cn(-c4cc5c(cc4C(=O)N4Cc6ccccc6C[C@H]4CN4CCN(C)CC4)OCO5)c4ccccc34)c3ccc(O)cc3)ccc21 [Example 99, N-(1-Ethyl-1H-indol-5-yl)-N-(4-hydroxyphenyl)-1-(6-{[(3S)-3-[(4-methylpiperazin-1-yl)methyl]-3,4-dihydroisoquinolin-2(1H)-yl]carbonyl}-1,3-benzodioxol-5-yl)-1H-indole-3-carboxamide]
- IC50 (Bcl-2 protein): 4.8 nM
- IC50 [1]: 41.7 nM

Compound: Cc1cc(C(=O)N(c2ccccc2)c2ccc(O)cc2)cn1-c1cc(O)ccc1C(=O)N1Cc2ccccc2C[C@H]1CN1CCOCC1 [Example 15, 1-(5-Hydroxy-2-{[(3S)-3-(morpholin-4-ylmethyl)-3,4-dihydroisoquinolin-2(1H)-yl]carbonyl}phenyl)-N-(4-hydroxyphenyl)-5-methyl-N-phenyl-1H-pyrrole-3-carboxamide]
- IC50 (Bcl-2 protein): 22.1 nM
- IC50 [1]: 759 nM

Compound: CCCCN(C(=O)c1cn(-c2cc(OC)c(O)cc2C(=O)N2Cc3ccccc3C[C@H]2CN2CCN(C)CC2)c2ccccc12)c1ccc(O)cc1 [Example 203, N-Butyl-1-{4-hydroxy-5-methoxy-2-[(3S)-3-[(4-methylpiperazin-1-yl)methyl]-1,2,3,4-tetrahydroisoquinoline-2-carbonyl]phenyl}-N-(4-hydroxyphenyl)-1H-indole-3-carboxamide dihydrochloride]
- IC50 (Bcl-2 protein): 10 nM
- IC50 [1]: 454 nM

Compound: Cc1ccc(N(C(=O)c2cn(-c3cc4c(cc3C(=O)N3Cc5ccccc5C[C@H]3CN3CCN(C)CC3)OCO4)c3ccccc23)C2CCNCC2)cc1 [Example 98, N-(4-Methylphenyl)-1-(6-{[(3S)-3-[(4-methylpiperazin-1-yl)methyl]-3,4-dihydroisoquinolin-2(1H)-yl]carbonyl}-1,3-benzodioxol-5-yl)-N-(piperidin-4-yl)-1H-indole-3-carboxamide bis-hydrochloride]
- inhibition at 10 µM (Bcl-2 protein; read-out: percentage fluorescence polarisation inhibition (Bcl-2 FP)): 45.1%
- IC50 [1]: 1880 nM

Compound: CN1CCN(C[C@@H]2Cc3ccccc3CN2C(=O)c2cc3c(cc2-n2cc(C(=O)N(c4ccc(O)cc4)c4ccc5occc5c4)c4ccccc42)OCO3)CC1 [Example 44, N-(1-Benzofuran-5-yl)-N-(4-hydroxyphenyl)-1-(6-{[(3S)-3-[(4-methylpiperazin-1-yl)methyl]-3,4-dihydroisoquinolin-2(1H)-yl]carbonyl}-1,3-benzodioxol-5-yl)-1H-indole-3-carboxamide]
- IC50 (Bcl-2 protein): 6.8 nM
- IC50 [1]: 164 nM

Compound: Cc1cc(C(=O)N(c2ccc(O)cc2)c2ccc3c(c2)CN(C)C3)cn1-c1cc2c(cc1C(=O)N1Cc3ccccc3C[C@H]1C)OCO2 [Example 114, N-(4-Hydroxyphenyl)-5-methyl-N-(2-methyl-2,3-dihydro-1H-isoindol-5-yl)-1-(6-{[(3R)-3-methyl-3,4-dihydroisoquinolin-2(1H)-yl]carbonyl}-1,3-benzodioxol-5-yl)-1H-pyrrole-3-carboxamide hydrochloride]
- IC50 (Bcl-2 protein): 23.7 nM
- IC50 [1]: 726 nM

Compound: NC[C@@H]1Cc2ccccc2CN1C(=O)c1ccc(Cl)cc1-n1cc(C(=O)N(c2ccccc2)c2ccc(O)cc2)c2ccccc21 [Example 156, 1-{2-[(3S)-3-(Aminomethyl)-1,2,3,4-tetrahydroisoquinoline-2-carbonyl]-5-chlorophenyl}-N-(4-hydroxyphenyl)-N-phenyl-1H-indole-3-carboxamide]
- IC50 (Bcl-2 protein): 11.7 nM
- IC50 [1]: 450 nM

Compound: Cc1cc(C(=O)N(c2ccc(O)cc2)c2ccc3c(ccn3C)c2)cn1-c1cc2c(cc1C(=O)N1Cc3ccccc3C[C@H]1CN1CCN(C)CC1)OCO2 [Example 90, N-(4-Hydroxyphenyl)-5-methyl-N-(1-methyl-1H-indol-5-yl)-1-(6-{[(3S)-3-[(4-methylpiperazin-1-yl)methyl]-3,4-dihydroisoquinolin-2(1H)-yl]carbonyl}-1,3-benzodioxol-5-yl)-1H-pyrrole-3-carboxamide]
- IC50 (Bcl-2 protein): 3.6 nM
- IC50 [1]: 76.6 nM

Compound: COc1cc(-n2cc(C(=O)N(c3ccccc3)c3ccc(O)cc3)c3ccccc32)c(C(=O)N2Cc3ccccc3C[C@H]2CN2CCN(C)CC2)cc1O [Example 165, 1-{4-Hydroxy-5-methoxy-2-[(3S)-3-[(4-methylpiperazin-1-yl)methyl]-1,2,3,4-tetrahydroisoquinoline-2-carbonyl}phenyl]-N-(4-hydroxyphenyl)-N-phenyl-1H-indole-3-carboxamide dihydrochloride]
- IC50 (Bcl-2 protein): 3.2 nM
- IC50 [1]: 179 nM

Compound: COc1cc(-n2cc(C(=O)N(c3ccc(O)cc3)C3CCCCC3)c3ccccc32)c(C(=O)N2Cc3ccccc3C[C@H]2CN2CCN(C)CC2)cc1O [Example 204, N-Cyclohexyl-1-{4-hydroxy-5-methoxy-2-[(3S)-3-[(4-methylpiperazin-1-yl)methyl]-1,2,3,4-tetrahydroisoquinoline-2-carbonyl]phenyl}-N-(4-hydroxyphenyl)-1H-indole-3-carboxamide dihydrochloride]
- IC50 (Bcl-2 protein): 4.7 nM
- IC50 [1]: 780 nM

Compound: Cc1ccc(N(C(=O)c2cc(C)n(-c3cc(Cl)ccc3C(=O)N3Cc4ccccc4C[C@H]3CN3CCN(C)CC3)c2)c2ccc(O)cc2)cc1 [Example 91, 1-(5-Chloro-2-{[(3S)-3-[(4-methylpiperazin-1-yl)methyl]-3,4-dihydroisoquinolin-2(1H)-yl]carbonyl}phenyl)-N-(4-hydroxyphenyl)-5-methyl-N-(4-methylphenyl)-1H-pyrrole-3-carboxamide]
- IC50 (Bcl-2 protein): 5.3 nM
- IC50 [1]: 172 nM

Compound: Cc1cc(C(=O)N(c2ccc(O)cc2)c2cnc3c(ccn3C)c2)cn1-c1cc2c(cc1C(=O)N1Cc3ccccc3C[C@H]1CN1CCOCC1)OCO2 [Example 206, N-(4-Hydroxyphenyl)-5-methyl-N-(1-methyl-1H-pyrrolo[2,3-b]pyridin-5-yl)-1-(6-{[(3S)-3-(morpholin-4-ylmethyl)-3,4-dihydroisoquinolin-2(1H)-yl]-carbonyl}-1,3-benzodioxol-5-yl)-1H-pyrrole-3-carboxamide hydrochloride]
- IC50 (Bcl-2 protein): 16.7 nM
- IC50 [1]: 72.4 nM

Compound: Cc1cc(C(=O)N(c2ccc(O)cc2)c2ccc3c(ccn3C)c2)cn1-c1cc(Br)ccc1C(=O)N1Cc2ccccc2C[C@H]1CN1CCN(C)CC1 [Example 70, 1-(5-Bromo-2-{[(3S)-3-[(4-methylpiperazin-1-yl)methyl]-3,4-dihydroisoquinolin-2(1H)-yl]carbonyl}phenyl)-N-(4-hydroxyphenyl)-5-methyl-N-(1-methyl-1H-indol-5-yl)-1H-pyrrole-3-carboxamide hydrochloride]
- IC50 (Bcl-2 protein): 2.9 nM
- IC50 [1]: 63.8 nM
